Source: patent US20120225909A1, “INDAZOLE ANALOG” (priority 2009, published 2012)

Assays:
Assay type in all cases: cell-based
[1] = biological target: T1, human β3-adrenergic receptor (Homo sapiens, UniProt P13945); experiment: Test Case 1-B: human β3-adrenergic receptor agonist activity (cAMP-Screen, 96-well); conditions: for Emax: 0.5 h, read-out: β3 receptor I.A.; for EC50 / β3 receptor I.A.: Test Case 1-B; for EC50: CHO cells, cAMP; for β3 receptor I.A.: maximum response of isoproterenol = 100%
T1 construct: A full-length human β3 gene is obtained from a human genomic library (made by Clontech) using this as the probe; expressed in transfected cells; host or cells: CHO (Chinese hamster ovary) cells, pcDNA3
T1 sequence (P13945 whole entry): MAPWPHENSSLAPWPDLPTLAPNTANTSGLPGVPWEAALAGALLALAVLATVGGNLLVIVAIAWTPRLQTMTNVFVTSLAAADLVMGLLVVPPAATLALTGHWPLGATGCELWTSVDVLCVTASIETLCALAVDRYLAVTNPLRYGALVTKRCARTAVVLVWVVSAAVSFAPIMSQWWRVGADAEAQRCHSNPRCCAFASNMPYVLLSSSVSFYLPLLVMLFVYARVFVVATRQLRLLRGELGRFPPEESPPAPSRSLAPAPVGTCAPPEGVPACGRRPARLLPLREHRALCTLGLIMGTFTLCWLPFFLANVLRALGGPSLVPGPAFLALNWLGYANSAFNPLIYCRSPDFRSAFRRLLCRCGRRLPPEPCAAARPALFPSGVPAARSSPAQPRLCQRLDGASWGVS
Procedure, shortened: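 CHO cells stably transfected with full-length human β3 gene, serum-starved 15 min, then exposed to serially diluted compound in Ham's F-12 with 100 mmol/L HEPES and 1 mmol/L IBMX (diluent concentrations) for 30 min. Cells lysed 30 min at 37 °C; cAMP quantified by cAMP-Screen immunoassay.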

[2] = biological target: T2, human β1-adrenergic receptor (Homo sapiens, UniProt P08588); experiment: Test Case 2-C: human β1-adrenergic receptor agonist activity (Cerep cellular functional GPCR, beta 1); conditions: concentration 10 μM, isoproterenol = 100%
T2 construct: expressed in transfected cells; host or cells: CHO (Chinese hamster ovary) cells, pcDNA3
T2 sequence (P08588 whole entry): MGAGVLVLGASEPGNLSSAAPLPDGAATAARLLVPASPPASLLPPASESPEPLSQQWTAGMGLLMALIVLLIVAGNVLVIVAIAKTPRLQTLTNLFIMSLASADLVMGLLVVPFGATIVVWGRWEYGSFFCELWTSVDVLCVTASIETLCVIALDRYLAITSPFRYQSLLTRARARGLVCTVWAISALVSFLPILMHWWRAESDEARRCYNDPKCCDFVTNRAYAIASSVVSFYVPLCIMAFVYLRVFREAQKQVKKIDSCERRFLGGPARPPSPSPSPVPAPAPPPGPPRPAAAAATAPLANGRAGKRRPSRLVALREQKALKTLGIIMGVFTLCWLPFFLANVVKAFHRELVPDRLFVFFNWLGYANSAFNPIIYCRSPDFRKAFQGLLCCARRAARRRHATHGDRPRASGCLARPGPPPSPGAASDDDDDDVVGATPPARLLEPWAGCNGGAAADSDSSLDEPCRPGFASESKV
From the text: Measurement of Human β1-Adrenergic Receptor Agonist Activity

[3] = biological target: T3, human β2-adrenergic receptor (Homo sapiens, UniProt P07550); experiment: Test Case 3-C: human β2-adrenergic receptor agonist activity (Cerep cellular functional GPCR, beta 2); conditions: concentration 10 μM, isoproterenol = 100%
T3 construct: expressed in transfected cells; host or cells: CHO (Chinese hamster ovary) cells, pcDNA3
From the text: Measurement of Human β2-Adrenergic Receptor Agonist Activity

[4] = biological target: T4, human α1A-adrenergic receptor (Homo sapiens, UniProt P35348); experiment: Test Case 4-B: human α1A-adrenergic receptor agonist activity (Cerep cellular functional GPCR, alpha 1A); set-up: expressed in transfected cells; conditions: concentration 10 μM; for α1 receptor % of Control Agonist Response, Control; Epinephrine: epinephrine = 100%; for α1 receptor % of Control Agonist Response, Control; Norepinephrine: norepinephrine = 100%
T4 sequence (P35348 1-466): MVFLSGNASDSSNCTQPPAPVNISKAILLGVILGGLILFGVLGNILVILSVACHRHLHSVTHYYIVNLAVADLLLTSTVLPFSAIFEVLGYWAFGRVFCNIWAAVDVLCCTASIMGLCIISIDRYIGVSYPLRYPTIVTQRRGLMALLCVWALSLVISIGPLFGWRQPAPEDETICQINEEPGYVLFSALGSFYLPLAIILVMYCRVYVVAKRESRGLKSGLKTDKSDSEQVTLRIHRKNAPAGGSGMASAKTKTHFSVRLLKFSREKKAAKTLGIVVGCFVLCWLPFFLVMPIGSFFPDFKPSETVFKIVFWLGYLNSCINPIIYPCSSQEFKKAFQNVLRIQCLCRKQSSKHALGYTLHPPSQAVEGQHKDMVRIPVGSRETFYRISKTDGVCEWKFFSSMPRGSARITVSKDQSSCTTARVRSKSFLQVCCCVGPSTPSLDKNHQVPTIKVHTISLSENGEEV
From the text: Measurement of Human α1A-Adrenergic Receptor Agonist Activity
The human α1A-adrenergic receptor agonist activity] can be measured by […] Functional GPCR·Gs, alpha 1A (Ref. 722-36a) listed on p. 52 of the Cerep 2008 CATALOG IN VITRO PHARMACOLOGY & ADME-TOX.

[5] = biological target: T4, human α1A-adrenergic receptor; experiment: Test Case 4-A: human α1A-adrenergic receptor agonist activity (HEK293, Ca flux, Fura-2); set-up: expressed in transfected cells; host or cells: HEK293 cells, pcDNA3.1; conditions: for Emax: HEK293, read-out: α1A receptor I.A.
Procedure, shortened: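 Fura-2AM-loaded HEK293 cells transfected with human α1A were preincubated for 180 s. Compound (sample plate 10^−5 to 10^−12 M) was added after ~30 s of 340/380 nm excitation ratio reading (500 nm emission, 2-s intervals), followed by 270 s more reading. Ca flux is the peak height: maximum ratio after addition minus the pre-addition ratio.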

| Molecule | Emax [1] [%] | β1 receptor % of Control Agonist Response [2] [%] | β2 receptor % of Control Agonist Response [3] [%] | α1 receptor % of Control Agonist Response, Control; Epinephrine [4] [%] | α1 receptor % of Control Agonist Response, Control; Norepinephrine [4] [%] | EC50 [1] [nM] | Emax [5] [%] | β3 receptor I.A. [1] [%] | α1A receptor I.A. ([5]; Test Case 4-A, maximum response of norepinephrine = 100%, Table 4) [%] |
| --- | --- | --- | --- | --- | --- | --- | --- | --- | --- |
| Cc1n[nH]c2cc(OCCNC[C@H](O)c3cccc(NS(=O)(=O)c4c(F)cccc4F)c3)ccc12 [ex71, (R)-2,6-difluoro-N-(3-(1-hydroxy-2-(2-(3-methylindazol-6-yloxy)ethylamino)ethyl)phenyl) benzenesulfonamide] | – | 32 | 1.5 | 4.3 | 3.7 | 152 | – | 96 | 2 |
| Cc1n[nH]c2cc(OCCNC[C@H](O)c3cccc(NS(=O)(=O)c4cccnc4F)c3)ccc12 [ex86] | – | 8.8 | −0.7 | −0.4 | −0.3 | 401 | – | 80 | – |
| O=S(=O)(Nc1cccc([C@@H](O)CNCCOc2ccc3c(C(F)(F)F)n[nH]c3c2)c1)c1cccnc1 [ex186, (R)-N-(3-(1-hydroxy-2-(2-(3-(trifluoromethyl)-indazol-6-yloxy)ethylamino)ethyl)phenyl)pyridine-3-sulfonamide] | – | 7.2 | 1.9 | 0.6 | 0.5 | – | – | – | – |
| O=S(=O)(Nc1cccc([C@@H](O)CNCCOc2ccc3c(C(F)(F)F)n[nH]c3c2)c1)c1cn[nH]c1 [ex198, (R)-N-(3-(1-hydroxy-2-(2-(3-(trifluoromethyl)-indazol-6-yloxy)ethylamino)ethyl)phenyl)-pyrazole-4-sulfonamide] | – | 3.5 | −0.5 | 19 | 17 | – | – | – | – |
| O=S(=O)(Nc1cc([C@@H](O)CNCCOc2ccc3c(C(F)(F)F)n[nH]c3c2)ccc1Cl)C1CC1 [ex199, (R)-N-(2-chloro-5-(1-hydroxy-2-(2-(3-(tri-fluoromethyl)-indazol-6-yloxy)ethylamino)-ethyl)phenyl)-cyclo-propanesulfonamide] | – | 8.0 | 8.8 | 17 | 15 | – | – | – | – |
| Nc1cccc(S(=O)(=O)Nc2cccc([C@@H](O)CNCCOc3ccc4c(C5CC5)n[nH]c4c3)c2)c1F [ex215, (R)-3-amino-N-(3-(2-(2-(3-cyclopropyl-indazol-6-yloxy)ethyl-amino)-1-hydroxy-ethyl)phenyl)-2-fluorobenzene-sulfonamide] | – | 23 | 0.5 | 0.1 | 0.1 | – | – | – | – |
| (R)-N-(3-(2-(2-(3- ethylindazol-6- yloxy)ethylamino)-1- hydroxyethyl)phenyl)- ? -methyli ? zole-4- sulfonamide [ex134] | – | 7.0 | 2.0 | 7.0 | 6.0 | – | – | – | – |

Second part, led by results:

| Emax [1] [%] | β1 receptor % of Control Agonist Response [2] [%] | β2 receptor % of Control Agonist Response [3] [%] | α1 receptor % of Control Agonist Response, Control; Epinephrine [4] [%] | α1 receptor % of Control Agonist Response, Control; Norepinephrine [4] [%] | EC50 [1] [nM] | Emax [5] [%] | Molecule | β3 receptor I.A. [1] [%] | α1A receptor I.A. ([5]; Test Case 4-A, maximum response of norepinephrine = 100%, Table 4) [%] |
| --- | --- | --- | --- | --- | --- | --- | --- | --- | --- |
| 41 | 6.1 | 1.2 | 5.6 | 4.8 | – | – | COc1n[nH]c2cc(OCCNC[C@H](O)c3cccc(NS(=O)(=O)c4cccnc4F)c3)ccc12 [ex24, (R)-2-fluoro-N-(3-(1-hydroxy-2-(2-(3-methoxyindazol-6-yloxy)ethylamino)ethyl)phenyl)pyridine-3-sulfonamide] | – | – |
| 92 | 19 | 1.8 | 6.8 | 5.9 | 8.3 | 1 | Cc1n[nH]c2cc(OCCNC[C@H](O)c3cccc(NS(=O)(=O)c4cc(F)ccc4F)c3)ccc12 [ex72, (R)-2, ? -difluoro-N-(3-(1-hydroxy-2-(2-(3-methylindazol-6-yloxy)ethylamino)ethyl)phenyl) benzenesulfonamide] | – | – |
| 75 | 8.7 | −0.6 | 17 | 14 | 101 | 1 | O=S(=O)(Nc1cccc([C@@H](O)CNCCOc2ccc3c(OC(F)F)n[nH]c3c2)c1)c1ccccc1F [ex107, (R)-N-(3-(2-(2-(3-(difluoromethoxy)-indazol-6-yloxy)ethylamino)-1-hydroxyethyl)phenyl)-2-fluorobenzene-sulfonamide] | – | – |
| 90 | 17 | 1.6 | 7.8 | 6.7 | 62 | 0 | O=S(=O)(Nc1cccc([C@@H](O)CNCCOc2ccc3c(Cl)n[nH]c3c2)c1)c1ccccc1F [ex158, (R)-N-(3-(2-(2-(3-chloroindazol-6-yloxy)ethylamino)-1-hydroxyethyl)phenyl)-2-fluorobenzene-sulfonamide] | – | – |
| – | 9.4 | −0.2 | 0.7 | 0.6 | – | – | Nc1ccc(F)c(S(=O)(=O)Nc2cccc([C@@H](O)CNCCOc3ccc4c(Cl)n[nH]c4c3)c2)c1 [ex242, (R)-5-amino-N-(3-(2-(2-(3-chloroindazole-6-yloxy)ethylamino)-1-hydroxyethyl)phenyl)-2-fluorobenzenesulfonamide] | – | – |
